Experimental data as given in patent US12180146B2, “Antihypertensive polyol compound and derivative thereof” (TAO PHARMACEUTICAL (SUZHOU) CO., LTD, priority 2020, dated 2024).

Experiments:
[1] = test system: spontaneously hypertensive rats (SHR); experiment: Antihypertensive activity test: blood pressure and heart rate of spontaneously hypertensive rats (SHR); type: in vivo, rat; details: 200 mg/kg; for SHR blood pressure (SBP), time after administration 1 h / SHR blood pressure (SBP), time after administration 2 h / SHR blood pressure (SBP), time after administration 3 h / SHR blood pressure (SBP), time after administration 4 h / SHR blood pressure (SBP), time after administration 5 h / SHR blood pressure (SBP), time after administration 6 h: n = 8
In short: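 Spontaneously hypertensive rats received compound at 200 mg/kg. SBP and heart rate were measured before and after dosing. A drop in SBP of ≥20 mmHg from baseline counted as effective, and heart-rate changes were tested by paired t-test (P<0.05).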

[2] = test system: monocrotaline-induced pulmonary hypertension model rats (MCT-PAH); experiment: Monocrotaline-induced pulmonary hypertension model rats, oral (gavage) treatment for 21 days; type: in vivo, SD rats; details: 100 mg/kg
Text: Monocrotaline (MCT) was subcutaneously injected to establish an animal model of pulmonary hypertension in SD rats. At the same time, compound 1 was given by gavage for treatment. The pulmonary artery hemodynamics and right heart hypertrophy index RVHI of the rates were detected to determine whether the oral administration of compound 1 has effects of improving Monocrotaline induces pulmonary hypertension.
(§1) SD rats (purchased from Shanghai Xipuer-Bikai Experimental Animal Co., Ltd.), male, weighing 180-200 g, were bred in an artificially controlled animal room with each 12 hours of light and darkness at a temperature of 20-25° C. and relative humidity of 50-60%, and allowed ad libitum to food and water. The rats were randomly divided into groups according to the experimental requirements, and kept separately in cages, with 3 to 4 rats per cage. All relevant operations of animal experiments are in compliance with the provisions of “Guidelines for the Management and Use of Laboratory Animals” of China.
During the experiment, SD rats were randomly divided into 4 groups: blank control group, pulmonary hypertension model group, Selexipag (1 mg/kg) treatment group and compound 1 (100 mg/kg) group with 6 rats in each group, and the concentration in brackets represents the administration concentration of the compound, in which Selexipag is a new oral long-acting prostacyclin receptor agonist discovered and synthesized by Japan New Drug Co., Ltd. On the first day of the experiment, normal saline was injected subcutaneously into the back of neck of rats in the blank control group, and monocrotaline (Chengdu Purifa Biotechnology Co., Ltd.) solution was injected in the rats in other groups at a dosage of 60 mg/kg. Both the positive drug, Selexipag and Compound 1 were administered by gavage. Selexipag and […] were dissolved in 0.5% CMC-Na solution. The rats were continuously administered for 21 days with a volume of […]. The rats in the control and model groups were given the corresponding volume of CMC-Na solution by gavage. Specific groupings can be found in Table 7.
After the administration, the pulmonary vascular hemodynamics and RVHI was determined according to the same experiment method as that in Example 1.

[3] = test system: monocrotaline-induced pulmonary hypertension model rats (MCT-PAH); experiment: Monocrotaline-induced pulmonary hypertension model rats, aerosol inhalation treatment; type: in vivo, SD rats; details: 30 mg/kg, inh, 28 days
Description: A pulmonary hypertension animal model of SD rats was established by subcutaneous injection of monocrotaline (MCT). The compound 1 was administered by aerosol inhalation for treatment. The pulmonary artery hemodynamics and right heart hypertrophy index RVHI of rats were tested to determine whether compound 1 administered by aerosol inhalation has effects of improving monocrotaline-induced pulmonary hypertension.
as §1
In the second experiment, the rats were divided into 5 groups, namely the control group, model group, positive control Tyvaso (1.62 μg/kg) group, compound 1 (10 mg/kg) group and compound 1 (30 mg/kg) group. On the first day of the experiment, normal saline was injected subcutaneously into the back of the neck of the rats in the blank control group, and monocrotaline (Chengdu Purifa Biotechnology Co., Ltd.) solution was injected in the other groups at a dosage of 60 mg/kg. Compound 1 and Tyvaso were administered by aerosol inhalation, that is, the compound was firstly dissolved in physiological saline, and then the solution was prepared into an aerosol with a nebulizer to be inhaled into the mouth and nose of rats. The rats in the control group and the model group only inhaled an aerosol made of physiological saline. The rats were continuously administered for 28 days, and the concentration in the parentheses of the group name represents the administered concentration of the compound. Specific groupings can be found in Table 9. After the administration, the pulmonary vascular hemodynamics and RVHI were determined in the same way as the experiment method in Example 1.

[4] = test system: hypoxic pulmonary hypertension model rats; experiment: Hypoxic pulmonary hypertension model rats, oral (gavage) treatment for 28 days; type: in vivo, SD rats; details: hypoxic PAH rats, 200 mg/kg, po
Description: An animal model of pulmonary hypertension in SD rats was established in a hypoxic and low-pressure environment, and compound 1 was administered by gavage at the same time for treatment. The rat pulmonary artery hemodynamics and right heart hypertrophy index RVHI were measured to determine whether compound 1 has effects of improving hypoxic pulmonary hypertension.
as §1
The hypoxic PAH model was established by placing SD male rats in a fully-automatically regulated low-pressure hypoxic chamber (atmospheric pressure of about 50 kPa, oxygen concentration of 10%) for 8 hours a day for 28 days. The rats in the blank control group were kept in a normoxic environment.
The experimental rats of hypoxic PAH model were divided into 8 groups, namely blank control group, model group, Sidenafil (25 mg/kg) group, compound 1 (10 mg/kg) group, compound 1 (25 mg/kg) group, compound 1 (50 mg/kg) group, compound 1 (100 mg/kg) group, and compound 1 (200 mg/kg) group. The concentration in the parentheses of the group name represents the administration concentration of the compound or drug. In hypoxia-induced PAH experiments, Sidenafil is often used as a positive drug, which can reduce the pulmonary artery pressure in rats and reduce the right ventricular hypertrophy and vascular remodeling. In this experiment, 25 mg/kg of Sidenafil was used as the positive drug. Both the positive drugs Sidenafil and Compound 1 were dissolved in physiological saline and formulated into solutions of different concentrations according to different administration concentrations. The rats were continuously administered for 28 days with an administration volume of 5 ml/kg. Rats in the control and model groups were given the corresponding volume of physiological saline solution via gavage. The specific grouping can be found in Table 5.
After the administration was completed, the POWERLAB biological information acquisition and treatment system was started, and the right cardiac catheter filled with 0.2% heparin sodium (Beijing Solo Technology Co. Ltd.) in normal saline was connected to the pressure transducer and then zero-calibrationed for use. After 20% urethane (Shanghai Yuanye Biotechnology Co., Ltd.) solution was injected into the abdominal cavity of the rats for anesthesia, the right neck hair was shaved and the right jugular vein was isolated and exposed. […] After the typical right ventricular waveform appeared and stabilized for a while, the waveform was recorded, and then the pressure value was read by Powerlab biological information acquisition and processing system (ADInstruments).
After the pressure was measured, the catheter was taken out, and the rat was dissected immediately to take out the heart and lung tissues. The right ventricle (RV) and the left ventricle and interventricular septum (LV+S) were separated and weighed, and the right heart hypertrophy index RVHI=RV/(LV+S) was calculated. The lung lobe tissue from the right lower part of the lung was separated, soaked in 4% paraformaldehyde (Sigma) for about 1 week to prepare a paraffin section with a thickness of 3 μm, and then conducted to hematoxylin-eosin staining (Wuhan Guge Biotechnology Co., Ltd.). […]

Row | SMILES | SBP Difference before and after administration, 1 h [1] [mmHg] | SHR blood pressure (SBP), time after administration 1 h [1] [mmHg] | SBP Difference before and after administration, 2 h [1] [mmHg] | SHR blood pressure (SBP), time after administration 2 h [1] [mmHg] | SBP Difference before and after administration, 3 h [1] [mmHg] | SHR blood pressure (SBP), time after administration 3 h [1] [mmHg] | SBP Difference before and after administration, 4 h [1] [mmHg] | SHR blood pressure (SBP), time after administration 4 h [1] [mmHg] | SBP Difference before and after administration, 5 h [1] [mmHg] | SHR blood pressure (SBP), time after administration 5 h [1] [mmHg] | SBP Difference before and after administration, 6 h [1] [mmHg] | SHR blood pressure (SBP), time after administration 6 h [1] [mmHg] | 2 × MT/ED [2] | RVHI [2] | RVSP [2] [mmHg] | mPAP [2] [mmHg] | 2 × MT/ED [3] | RVHI [3] | RVSP [3] [mmHg] | mPAP [3] [mmHg] | other results
1 | OCC(O)c1cccc(F)c1 (stereo not shown) [Compound 7] | 16 | 177 ± 9.56 | 21 | 172 ± 7.36 | 22 | 171 ± 4.07 | 20 | 173 ± 6.18 | 18 | 175 ± 5.63 | 13 | 180 ± 7.61 | 0.27 ± 0.045 | 0.33 ± 0.058 | 42.31 ± 2.78 | 15.67 ± 2.70 | 0.375 ± 0.024 | 0.267 ± 0.013 | 44.61 ± 2.96 | 12.45 ± 2.41 | 2 × MT/ED [4]: 0.291 ± 0.023; RVHI [4]: 0.261 ± 0.037; RVSP [4]: 62.78 ± 3.41 mmHg; mPAP [4]: 16.64 ± 2.08 mmHg
2 | COc1cccc(C(O)CO)c1 (stereo not shown) [Compound 8] | 6 | 188 ± 12.4 | 13 | 181 ± 12.7 | 18 | 176 ± 11.1 | 18 | 176 ± 10.3 | 14 | 180 ± 11.3 | 8 | 186 ± 10.4 | 0.31 ± 0.052 | 0.33 ± 0.037 | 45.97 ± 3.49 | 16.47 ± 3.07 | 0.353 ± 0.043 | 0.306 ± 0.027 | 45.92 ± 3.47 | 14.16 ± 3.84 | SBP Difference before and after administration, 0 h ([1]; 0 h): 0 mmHg; 2 × MT/ED [4]: 0.277 ± 0.022; RVHI [4]: 0.296 ± 0.027; RVSP [4]: 62.50 ± 2.91 mmHg; mPAP [4]: 17.19 ± 3.65 mmHg
3 | CCc1cccc(C(CO)OC2OC(CO)C(O)C(O)C2O)c1 (stereo not shown) [Compound 16] | 9 | 174 ± 10.6 | 11 | 172 ± 10.4 | 10 | 173 ± 9.90 | 15 | 168 ± 6.61 | 11 | 172 ± 7.25 | 9 | 174 ± 12.1 | 0.32 ± 0.066 | 0.320 ± 0.031 | 48.89 ± 6.64 | 16.74 ± 3.08 | 0.357 ± 0.032 | 0.290 ± 0.054 | 41.44 ± 2.03 | 14.76 ± 1.98 | 2 × MT/ED [4]: 0.289 ± 0.030; RVHI [4]: 0.365 ± 0.031; RVSP [4]: 65.83 ± 3.26 mmHg; mPAP [4]: 18.60 ± 3.60 mmHg
4 | CCc1cccc(C(COC(C)=O)OC(C)=O)c1 (stereo not shown) [Compound 30] | 4 | 189 ± 7.54 | 5 | 188 ± 3.69 | 8 | 185 ± 10.11 | 20 | 183 ± 9.66 | 5 | 188 ± 14.9 | 5 | 188 ± 8.64 | 0.31 ± 0.021 | 0.245 ± 0.032 | 44.38 ± 2.89 | 16.21 ± 1.29 | 0.402 ± 0.034 | 0.273 ± 0.043 | 46.04 ± 3.27 | 16.00 ± 3.44 | 2 × MT/ED [4]: 0.287 ± 0.025; RVHI [4]: 0.303 ± 0.0632; RVSP [4]: 62.14 ± 3.35 mmHg; mPAP [4]: 16.03 ± 5.35 mmHg
